The compounds below were run against T1, human glycine transporter-2 (GlyT2) (Homo sapiens, UniProt Q9Y345) (assay: GlyT2 inhibitory activity: inhibition of [14C]-glycine uptake in COS-7 cells transfected with human GlyT2). Settings: Cos-7 cells stably transfected with human GlyT2; 20 μM 14C-glycine, 2 h at 37° C.
T1 construct: The entire coding region of the human GlyT2 cDNA was cloned into the mammalian expression vector pCINeo; expressed in transfected cells; host or cells: Cos-7 cells (African green monkey kidney), stably transfected, vector pCINeo, G418 selection
T1 sequence (Q9Y345 1-797): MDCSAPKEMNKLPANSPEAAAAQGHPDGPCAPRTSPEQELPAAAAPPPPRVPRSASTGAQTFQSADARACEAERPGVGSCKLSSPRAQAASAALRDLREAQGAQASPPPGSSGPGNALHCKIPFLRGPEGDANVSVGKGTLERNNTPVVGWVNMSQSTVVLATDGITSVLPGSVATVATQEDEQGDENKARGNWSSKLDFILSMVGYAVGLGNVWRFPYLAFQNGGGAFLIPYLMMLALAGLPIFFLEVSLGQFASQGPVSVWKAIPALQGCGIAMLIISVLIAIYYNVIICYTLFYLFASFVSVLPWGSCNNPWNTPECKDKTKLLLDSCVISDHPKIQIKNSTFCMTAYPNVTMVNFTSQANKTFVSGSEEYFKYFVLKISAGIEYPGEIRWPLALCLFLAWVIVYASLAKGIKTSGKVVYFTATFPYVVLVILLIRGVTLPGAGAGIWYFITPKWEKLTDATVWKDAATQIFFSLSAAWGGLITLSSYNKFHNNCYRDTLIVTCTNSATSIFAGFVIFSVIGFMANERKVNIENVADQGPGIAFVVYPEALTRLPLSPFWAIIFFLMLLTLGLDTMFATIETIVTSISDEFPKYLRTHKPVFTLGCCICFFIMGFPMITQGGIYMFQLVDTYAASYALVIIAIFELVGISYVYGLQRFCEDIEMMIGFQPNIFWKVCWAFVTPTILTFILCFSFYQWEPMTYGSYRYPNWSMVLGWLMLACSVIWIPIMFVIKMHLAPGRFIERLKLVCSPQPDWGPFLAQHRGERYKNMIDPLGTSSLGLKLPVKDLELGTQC
Type: cell-based
Procedure: GlyT2 antagonist activity of representative compounds of the invention was determined in accordance with the assay described in the Examples and by measuring the ability of compounds to inhibit the uptake of [^14C]-glycine in COS-7 cells transfected with the human glycine transporter-2 (GlyT2). The GlyT2 antagonist activities of these representative compounds are set forth hereinafter in Table 1.
Cos-7 cells (African green monkey, kidney) from American Type Culture Collection were grown in DMEM supplemented with 10% fetal bovine serum. The entire coding region of the human GlyT2 cDNA was cloned into the mammalian expression vector pCINeo, and then stably transfected into Cos-7 cells. Transfection was performed essentially as described by T. W. Lovenberg et al. (Mol. Pharmacol. 1999, 55:1101-1107). Cells are grown to 70-80% confluence, removed from the plate with trypsin, and pelleted in a clinical centrifuge. The pellet is resuspended in 400 μL complete medium and transferred to an electroporation cuvette with a 0.4 cm gap between the electrodes (Bio-Rad, 165-2088). One microgram of supercoiled GlyT2 cDNA is added to the cells, and the suspension is mixed. The voltage for the electroporation is set at 0.25 kV, and the capacitance is set at 960 μF. After electroporation, the cuvette contents are diluted to 10 mL with complete medium, and 0.5 mL, 1.0 mL, 2.0 mL and remainder (−6.5 mL) portions are plated onto four 10-cm dishes. The cells are incubated 24 h before adding 600 μg/mL G418. Colonies that survive selection are isolated and tested for GlyT2 expression.
The day before the assay, the GlyT2 expressing cells were plated into 96-well scintillating microplates (Amersham, RPNQ 0160) at a density of approximately 20,000 cells per well. Cells were grown overnight at 37° C. in 5% CO2 and then washed once with 37° C. HEPES buffered saline (HBS: 150 mM NaCl, 20 mM HEPES, 1 mM CaCl2, 10 mM glucose, 5 mM KCl, 1 mM MgCl2; pH 7.4). Eighty microliters of 37° C. HBS was subsequently added to each well. Test solutions of GlyT2 inhibitors were prepared in HBS from DMSO stock solutions, and 5 μL of test solution was added to each test well. Total transport and non-specific background were determined by adding 5 μL HBS or 5 μL 2 M glycine, respectively, to the appropriate control wells. Plates were then left at room temperature for 5 min before the addition of 20 μL of 100 μM ^14C-glycine (NEN, NEC 048H) to each well for a final concentration of 20 μM. Plates were incubated for 2 h at 37° C. with 5% CO2. After 2 h the reaction mixtures were removed by aspiration, and the plates were washed once with ice-cold HBS. Plates were sealed with TopSeal (Packard, 6005185) and counted on a Packard TopCount® scintillation counter.

| SMILES | IC50 [µM] |
| --- | --- |
| Nc1ccccc1NCCNCc1cc(C(=O)N2CCCCC2)cs1 [Example 35, (5-{[2-(2-Amino-phenylamino)-ethylamino]-methyl}-thiophen-3-yl)-piperidin-1-yl-methanone] | > 10 |
| CC(C)Oc1ccccc1NCCNCc1cccc(C(=O)N2CCCCC2)c1 [Example 1, (3-{[2-(2-Isopropoxy-phenylamino)-ethylamino]-methyl}-phenyl)-piperidin-1-yl-methanone] | 0.4 |
| O=C(c1cccc(CNCCNc2ccccc2[N+](=O)[O-])c1)N1CCCCC1 [Example 11, (3-{[2-(2-Nitro-phenylamino)-ethylamino]-methyl}-phenyl)-piperidin-1-yl-methanone] | 5 |
| CC(C)Oc1ccccc1N(C)CCN(C)Cc1cccc(C(=O)N2CCCCC2)c1 [Example 29, {3-[({2-[(2-Isopropoxy-phenyl)-methyl-amino]-ethyl}-methyl-amino)-methyl]-phenyl}-piperidin-1-yl-methanone] | > 10 |
| CCC(CC)Oc1ccccc1NCCNCc1cccc(C(=O)N2CCCCC2)c1 [Example 6, [3-({2-[2-(1-Ethyl-propoxy)-phenylamino]-ethylamino}-methyl)-phenyl]-piperidin-1-yl-methanone] | 3 |
| CC(C)Oc1ccccc1NCCCNCc1cccc(C(=O)N2CCCCC2)c1 [Example 2, (3-{[3-(2-Isopropoxy-phenylamino)-propylamino]-methyl}-phenyl)-piperidin-1-yl-methanone] | 4 |
| CC(C)c1ccccc1NCCNCc1cccc(C(=O)N2CCCCC2)c1 [Example 21, (3-{[2-(2-Isopropyl-phenylamino)-ethylamino]-methyl}-phenyl)-piperidin-1-yl-methanone] | 2.5 |
| O=C(c1cccc(CNCCNc2ccccc2O)c1)N1CCCCC1 [Example 4, (3-{[2-(2-Hydroxy-phenylamino)-ethylamino]-methyl}-phenyl)-piperidin-1-yl-methanone] | 20 |
| CC(C)Oc1ccccc1N(C)CCNCc1cccc(C(=O)N2CCCCC2)c1 [Example 28, [3-({2-[(2-Isopropoxy-phenyl)-methyl-amino]-ethylamino}-methyl)-phenyl]-piperidinyl-methanone] | 3.5 |
| CC(C)Oc1ccccc1NCCNCc1cccc(C(=O)N2CCCCCC2)c1 [Example 39, Azepan-1-yl-(3-{[2-(2-isopropoxy-phenylamino)-ethylamino]-methyl}-phenyl)methanone.] | 1.8 |
